Counter-ions that a name gives are not always drawn.
Key:
Caco-2 cells = test: Bi-directional Caco-2 transport assay; format: in vitro ADME; details: for Papp (A-B) / Papp (B-A) / Efflux Ratio (B-A/A-B): human, Caco-2, 90 min, 5 μM; for Papp (A-B) / Papp (B-A): pH 7.4; for P-gp substrate: Caco-2
Experimental: The objective of the study is to evaluate test compounds as substrates for efflux transporter using Caco-2 cell line. To assess the functionality of P-glycoprotein (P-gp), loperamide was run as a positive control (Apical and basolateral HBSS pH 7.4).
5 mM DMSO stock of test compounds and loperamide was diluted 1000-folds in HBSS having 0.1% DMSO to prepare concentrations of 5 μM.
Caco-2 cells were grown in DMEM (20% FBS) until 85-90% confluence. After attaining required confluence, cells were trypsinized and seeded into 24 well millcell plates at a density of 0.6×10^5 cells/insert. The plates were maintained for 21 days at 37° C. in CO2 incubator with change of medium every alternative day. Monolayer integrity was monitored by measuring Trans-epithelial electrical resistance (TEER) from day 15.
Caco-2 cell monolayer was washed twice with HBSS and incubated for 40 min in CO2 incubator. TEER values were measured and wells showing TEER values above 230 ohms·cm^2 were taken for experiments. The study was performed in loperamide and test compounds by adding 400 μL of loperamide prepared in HBSS in apical (A-B transport) followed by addition of 800 μL of HBSS on basal side and for B-A transport 800 μL of loperamide prepared in HBSS was dosed in basal followed by addition of 400 μL HBSS on apical side. At selected time points (0, 15, 30, 60 and 90 mins) an aliquot of 50 μL was collected from the receiver compartment for determination of test compound concentrations. The volume withdrawn was replaced immediately with HBSS buffer. TEER was measured at the end to the experiment to confirm any damage of monolayer while performing experiment. Those wells with TEER not meeting the criteria were excluded from the study.
A 50 μL of test compound samples collected at respective time points and submitted for LC-MS/MS analysis.
The apparent permeability (Papp) (A−B & B−A) of test compounds and positive control was calculated using the following formula: Papp=dQ/dt/A·Co where, dQ/dt=linear slope of test compound concentration in receptor chamber with time (0, 15, 30, 60 and 90 min) after correcting for dilution; A=area of the filter (0.7 cm^2); and Co=initial concentration of compound in the donor compartment.
Efflux ratio (RE) was calculated using the following equation: RE=PB/A/PA/B where PB/A and PA/B represent the apparent permeability of test compound from the basal to apical and apical to basal side of cell monolayer.
Recovery represents: (amount of the compound recovered from donor at end of incubation+cumulative amount of compound in acceptor at end of incubation+amount of the compound in cell lysate or assay well)/amount of compound in donor solution at time zero*100
Compounds are classified based on Papp values as follows:
A compound having efflux ratio of >2 is considered as having potential as a P-gp substrate.

STAT1 = test: Western blotting of STAT1 protein levels in GBM spheres; format: cell-based, human; details: 72 hours
Experimental: GBM cells were treated with DMSO or different concentrations of the test compounds for 72 hours. Cells were lysed in Cell Lysis Buffer (Cell Signaling, #9803) supplemented with Protease Inhibitor Cocktail (Sigma, #P8340), sonicated briefly while on ice and spun down for 30 minutes at 4° C., after which the supernatant was collected. For each sample, 2 uL of lysate was mixed well into 198 uL de-ionized water. Next, 10 uL of this diluted sample was added to a well in a 96 well plate in quadruplets and mixed with Protein Assay Dye Reagent Concentrate (Bio-Rad, #500-0006) (which was diluted 1:5 with water). BSA standards of 25 ng, 50 ng, 100 ng, 200 ng and 250 ng were also used to the plate and mixed with the reagent. The plate was read in a plate reader at 600 nm and samples were calibrated to the standards to determine the concentration of protein. Using the NuPAGE system (Invitrogen), 25 ug of protein was mixed with NuPAGE LDS 4× Sample Buffer (#NP0007), NuPAGE 10× Reducing Agent (#NP0004) and water, mixed well and heated at 96° C. for 15 minutes to denature the protein. The samples were then loaded into 4-12% Bis-Tris gels (Novex (Invitrogen), #0323) with a protein ladder (Novex (Invitrogen) Sharp Pre-stained protein ladder, #57318) and run at 100-120V for about 2 hours with NuPAGE 20×SDS MES Running Buffer (#NP0002) diluted with water. Next, the gel was taken out and loaded into a NuPAGE transfer cassette with a polyvinylidene membrane with NuPAGE 20× Transfer Buffer (#NP0006-1) diluted with water and methanol. Proteins were transferred for 1 hour at 30V at room temperature. Blocking was performed using the Millipore SNAP i.d. Protein Detection system in 0.25% non-fat dry milk in 0.1% Tween in PBS (PBST). […] Protein signals were detected using ECL Western Blotting Substrate (Pierce, #32106) and filmed. […]

SMILES | Papp (A-B) (Caco-2 cells) | Papp (B-A) (Caco-2 cells) | STAT1 protein levels (STAT1) | P-gp substrate (Caco-2 cells) | Efflux Ratio (B-A/A-B) (Caco-2 cells)
COc1c(F)cc(Nc2nc(-c3c(C)nc4ccccn34)cs2)cc1F [Compound 14, hydrochloride] | 0.0 ± 0.0 10^−6 cm/sec | 0.0 ± 0.0 10^−6 cm/sec | lowered STAT1 |  | 
[2H]C([2H])([2H])Oc1ccc(Nc2nc(-c3c(C)nc4ccccn34)cs2)cc1 [Compound 15, N-(4-(methoxy-d3)phenyl)-4-(2-methylimidazo[1,2-c]pyridin-3-yl)thiazol-2-amine hydrochloride] | 0.0 ± 0.0 10^−6 cm/sec | 0.0 ± 0.0 10^−6 cm/sec | lowered STAT1 |  | 
Cc1nc2ccccn2c1-c1csc(Nc2ccc3c(c2)OC(F)(F)O3)n1 [Compound 16, N-(2,2-difluorobenzo[d][1,3]dioxol-5-yl)-4-(2-methylimidazo[1,2-a]pyridin-3-yl)thiazol-2-amine hydrochloride] |  |  |  | not P-gp substrate | 0.9
[2H]C1([2H])Oc2ccc(Nc3nc(-c4c(C)nc5ccccn45)cs3)cc2O1 [Compound 17, N-(benzo[d][1,3]dioxol-5-yl-2,2-d2)-4-(2-methylimidazo[1,2-c]pyridin-3-yl)thiazol-2-amine hydrochloride] |  |  | lowered STAT1 | not P-gp substrate | 1.3
